Reference: ChEMBL document CHEMBL5260847, “Current scenario of indole derivatives with potential anti-drug-resistant cancer activity” (Eur J Med Chem, 2020)
Each block holds one molecule with its values, some of them ahead of it.

Assays:
[1] = system: K562/Adr; experiment: Cytotoxicity activity against doxorubicin-resistant human K562/Adr cells assessed as reduction in cell viability measured after 72 hrs by CCK-8 assay; format: functional, cell-based
[2] = system: K562; experiment: Antiproliferative activity against human K562 cells assessed as reduction in cell growth measured after 24 hrs by CCK-8 assay; format: functional, cell-based; details: K562, 24 h
[3] = system: K562; experiment: Cytotoxicity activity against […] human K562 cells assessed as reduction in cell viability measured after 72 hrs by CCK-8 assay; format: functional, cell-based; details: K562, 72 h
[4] = system: H69AR; experiment: Antiproliferative activity against multidrug resistant human NCI-H69AR assessed as inhibition of cell proliferation by MTT assay; format: functional, cell-based
[5] = system: HT-29; experiment: Antiproliferative activity against drug-sensitive human HT-29 cells assessed as reduction in cell viability by MTT assay; format: functional, cell-based
[6] = system: H69AR; experiment: Antiproliferative activity against multi-drug resistant human NCI-H69AR assessed as reduction in cell viability; format: functional, cell-based
[7] = Selectivity index, ratio of IC50 for antiproliferative activity against human MCF-10A cells to IC50 for antiproliferative activity against […] cells by MTT assay; format: toxicity, cell-based; details: MCF-10A cells and IEC-6 cells, read-out: Selectivity Index
[8] = system: MCF-10A; experiment: Antiproliferative activity against human MCF-10A cells assessed as reduction in cell viability measured after 48 hrs by MTT assay; format: functional, cell-based
[9] = system: ZR-75-1; experiment: Antiproliferative activity against multi-drug resistant human ZR-75-1 cells assessed as reduction in cell viability; format: functional, cell-based
[10] = system: ZR-75-1; experiment: Antiproliferative activity against human ZR-75-1 cells assessed as reduction in cell viability celltiter-Glo assay; format: functional, cell-based
[11] = system: HT-29; experiment: Antiproliferative activity against human HT-29 cells assessed as reduction in cell viability celltiter-Glo assay; format: functional, cell-based
[12] = Cytotoxicity activity against human U87MG.deltaEGFR cells assessed as reduction in cell viability incubated for 72 hrs by MTT assay; format: functional, cell-based
[13] = system: HCT-116; experiment: Antiproliferative activity against multi-drug - resistant human HCT-116 cells assessed as reduction in cell viability; format: functional, cell-based
[14] = system: HCT-15; experiment: Antiproliferative activity against multidrug-resistant human HCT-15 cells assessed as reduction in cell viability; format: functional, cell-based
[15] = system: K562; experiment: Cytotoxicity against human K562 cells assessed as reduction in cell viability incubated for 72 hrs by MTT assay; format: functional, cell-based; details: K562, 72 h
[16] = system: HT-29; experiment: Cytotoxicity activity against human HT-29 cells assessed as reduction in cell growth measured after 72 hrs by MTT assay; format: functional, cell-based; details: HT-29, 72 h
[17] = system: KB; experiment: Antiproliferative activity against human KB cells assessed as reduction in cell growth incubated for 2 days by MTT assay; format: functional, cell-based; details: 48 h
[18] = Cytotoxicity against human HUVEC cells assessed as reduction in cell viability incubated for 2 hrs by MTT assay; format: toxicity, cell-based
[19] = system: K562/A02; experiment: Antiproliferative activity against human K562/A02 cells assessed as reduction in cell viability measured after 2 days by MTT assay; format: functional, cell-based; details: K562/A02, 48 h
[20] = Cytotoxicity against human hypertrophic scar Fibroblast cells assessed as inhibition of cell growth incubated for 2 hrs by MTT assay; format: toxicity, cell-based
[21] = system: LNCaP; experiment: Cytotoxicity activity against human LNCaP cells assessed as reduction in cell viability; format: functional, cell-based
[22] = system: A2780; experiment: Antiproliferative activity against human A2780 cells assessed as inhibition of cell proliferation measured after 24 hrs by MTT assay; format: functional, cell-based; details: A2780, 24 h
[23] = system: Epidermoid carcinoma cell line; experiment: Cytotoxicity activity against vincristine-resistant human Epidermoid carcinoma cell line assessed as reduction in cell growth; format: functional, cell-based
[24] = system: KB; experiment: Cytotoxicity activity against vincristine-resistant human KB cells assessed as reduction in cell growth; format: functional, cell-based
[25] = system: LS180; experiment: Antitumor activity against human LS180 cells xenografted in ICR mouse assessed as tumor growth inhibition at 45 mg/kg; format: functional; parameters: scale not given: the % may be the effect or the level left
[26] = system: LS180; experiment: Antitumor activity against human LS180 cells xenografted in ICR mouse assessed as tumor growth inhibition at 4.5 mg/kg; format: functional; parameters: scale not given: the % may be the effect or the level left
[27] = Antiproliferative activity against human KB-VIN cells assessed as reduction in cell viability measured after 72 hrs by SRB assay; format: functional, cell-based; details: KBVIN
[28] = system: A549; experiment: Cytotoxicity activity against human A549 cells assessed as reduction in cell viability by SRB assay; format: functional, cell-based
[29] = system: A549; experiment: Antiproliferative activity against human A549 cells assessed as inhibition of cell growth measured after 72 hrs by SRB assay; format: functional, cell-based; details: A549, 72 h
[30] = system: MCF7; experiment: Antiproliferative activity against human MCF7 cells assessed as inhibition of cell proliferation incubated for 72 hrs by MTT assay; format: functional, cell-based; details: MCF7, 72 h
[31] = system: NCI-H1650; experiment: Cytotoxicity activity against drug-sensitive human NCI-H1650 cells assessed as reduction in cell viability measured after 72 hrs by MTT assay; format: functional, cell-based; details: NCI-H1650, 72 h
[32] = system: NCI-H1650; experiment: Antitumor activity in human NCI-H1650 cells xenografted Sprague-Dawley mouse at 40 mg/kg assessed as tumor growth inhibition administered for 5 days; format: functional; parameters: scale not given: the % may be the effect or the level left; details: time 5 day
[33] = system: PC-9; experiment: Antitumor activity in gefitinib-resistant human PC-9 cells xenografted Sprague-Dawley mouse at 40 mg/kg assessed as tumor growth inhibition administered for 5 days; format: functional; parameters: scale not given: the % may be the effect or the level left; details: time 5 day
[34] = system: NCI-H460; experiment: Antitumor activity in human NCI-H460 cells xenografted […] mouse at 40 mg/kg assessed as tumor growth inhibition; format: functional; parameters: scale not given: the % may be the effect or the level left
[35] = system: NCI-H1975; experiment: Antitumor activity in human NCI-H1975 cells xenografted Sprague-Dawley mouse at 40 mg/kg assessed as tumor growth inhibition administered for 5 days; format: functional; parameters: scale not given: the % may be the effect or the level left; details: time 5 day
[36] = system: CCRF-CEM; experiment: Cytotoxicity against drug-sensitive human CCRF-CEM cells assessed as reduction in cell viability measured after 72 hrs by MTT assay; format: functional, cell-based
[37] = system: A549; experiment: Antiproliferative activity against multi-drug resistant human A549 cells assessed as reduction in cell viability; format: functional, cell-based

SMILES: O=C1Nc2ccc(Cl)cc2/C1=N/N=C/c1ccn[nH]1
IC50 [4]: 16000 nM
IC50 [5]: 5870 nM
IC50 [6]: 16600 nM
selectivity ratio [7]: 1.6
IC50 [8]: 3420 nM
IC50 [9]: 1370 nM
IC50 [10]: 1370 nM
IC50 [11]: 2750 nM

SMILES: COC(=O)[C@H]1[C@H]2C[C@@H]3c4[nH]c5cc(OC)ccc5c4CCN3C[C@H]2C[C@@H](OC(=O)c2cc(OC)c(OC)c(OC)c2)[C@@H]1OC [RESERPINE]
IC50 [12]: 9150 nM

SMILES: COc1cccc2c1C(=O)c1c(O)c3c(c(O)c1C2=O)C[C@@](O)(C(=O)CO)C[C@@H]3O[C@H]1C[C@H](N)[C@H](O)[C@H](C)O1 [DOXORUBICIN]
IC50 [15]: > 168000 nM
IC50 [16]: 1480 nM

SMILES: CC[C@]1(O)C[C@H]2CN(CCc3c([nH]c4ccccc34)[C@@](C(=O)OC)(c3cc4c(cc3OC)N(C=O)[C@H]3[C@@](O)(C(=O)OC)[C@H](OC(C)=O)[C@]5(CC)C=CCN6CC[C@]43[C@@H]65)C2)C1 [VINCRISTINE]
IC50 [21]: 2600 nM

SMILES: CC[C@@]12CC(C(=O)OC)=C3N=C4C(=CC(=O)C(O)=C4OC)[C@@]34CCN([C@@H]3c5cc6c(cc5O[C@@H]3[C@H]1O)NC1=C(C(=O)OC)C[C@]3(CC)[C@@H]5O[C@@H]5CN5CC[C@@]16[C@@H]53)[C@H]42
IC50 [23]: 2900 nM
IC50 [24]: 10 nM

SMILES: CCO[C@]1(C)C[C@@H]2CN(CCc3c([nH]c4ccccc34)[C@@](C(=O)OC)(c3cc4c(cc3OC)N(C)C3[C@]45CCN4CC=C[C@@](CC)([C@@H](OC(C)=O)[C@]3(O)C(=O)OC)[C@H]45)C2)C1 (some centres not stated)
Activity [25]: 67.8%
Activity [26]: 40.7%

SMILES: CCc1c(CO)c(CO)c2n1Cc1c(c3ccccc3n1C)C2
IC50 [31]: 3500 nM
Activity [32]: 30%
Activity [33]: 73%
Activity [34]: 65%
Activity [35]: 26%
IC50 [36]: 410 nM

More lines, main results first:

IC50 [2]: 43 nM
SMILES: COc1cc([C@@H]2c3cc4c(cc3[C@H](OC(=O)c3ccc5cc[nH]c5c3)[C@H]3COC(=O)[C@H]23)OCO4)cc(OC)c1OC
IC50 [1]: 245 nM
IC50 [3]: 19 nM

IC50 [13]: 2060 nM
IC50 [14]: 690 nM
SMILES: [O-][n+]1onc2c3cc[nH]c3ccc21

IC50 [17]: 1010 nM
IC50 [19]: 4710 nM
SMILES: COc1ccc2[nH]cc(C(=O)C(=O)N[C@@H]3c4cc5c(cc4[C@@H](c4cc(OC)c(OC)c(OC)c4)[C@H]4C(=O)OC[C@@H]43)OCO5)c2c1
IC50 at 2 h [18]: 15100 nM
IC50 at 2 h [20]: 26100 nM

IC50 [22]: 9300 nM
SMILES: Fc1ccc(C2=NCc3c([nH]c4ccccc34)S2)cc1

IC50 [29]: 3100 nM
IC50 [30]: 12900 nM
SMILES: CC[C@@H]1C[C@@H]2CN3CCc4c([nH]c5c([C@H]6CC7[C@]8(O[C@@H]8C)[C@@H]8OC[C@@]7(C(=O)OC)[C@H](Cc7c6[nH]c6ccccc76)N8C)c(OC)ccc45)[C@@](C(=O)OC)(C2)[C@@H]13
IC50 [27]: 2600 nM
IC50 [28]: 4800 nM

IC50 [37]: 47600 nM
SMILES: CCOC(=O)c1c(-c2ccccc2)oc2ccc(OCCCCCCN3C(=O)C(=O)c4ccccc43)cc12
